According to PMC8635778 (Angewandte Chemie (International ed. in English), 2020):

Columns and labels:
[1] = mouse, in vivo, iv
[2] = system: papillary RCC cell line (ACHN) orthotopic xenograft; experiment: fluorescence imaging of orthotopic papillary RCC xenograft; type: in vivo, mice; conditions: cancerous vs normal kidney tissue

SMILES: CC1(C)C(/C=C/C=C/C=C/C=C2\N(CCCCS(=O)(=O)O)c3ccc4ccccc4c3C2(C)C)=[N+](CCCCS(=O)(=O)[O-])c2ccc3ccccc3c21 [ICG, indocyanine green]
- amount found in the feces [1]: 85.3 % ID
- amount in feces, times higher than ICG-PEG45 [1]: 29.8 times
- hyperfluorescent imaging of RCC in the kidneys (in words) [2]: failed to hyperfluorescently light up RCC
